These results are taken from patent US10189841B2, “Purinones as ubiquitin-specific protease 1 inhibitors” (Forma Therapeutics, Inc., priority 2015, dated 2019).

Some results are limits rather than exact numbers.

For this experiment, the target named is USP1 (construct USP1 (I-785, GG670, 671AA)/UAF1 (I-677)-Flag) (Homo sapiens (Human), UniProt O94782, G670A/G671A). Briefly: Ubiquitin-Rhodamine 110 assay for USP1 activity. The following applies: USP1/UAF1 25 pM, Ub-Rh110 25 nM, 30 min preincubation. The experiment is classed as biochemical. The procedure, abridged: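 Ub-Rh110 (25 nM, ≪Km) cleavage read at ex 485/em 535 in Tris pH 8.0, CaCl2, GSH, Prionex, Triton X-100. The screen used 10 µM compound, 100 pM USP1/UAF1 and 45 min at RT.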
Chain of USP1 (construct USP1 (I-785, GG670, 671AA)/UAF1 (I-677)-Flag) (O94782 whole entry G670A/G671A): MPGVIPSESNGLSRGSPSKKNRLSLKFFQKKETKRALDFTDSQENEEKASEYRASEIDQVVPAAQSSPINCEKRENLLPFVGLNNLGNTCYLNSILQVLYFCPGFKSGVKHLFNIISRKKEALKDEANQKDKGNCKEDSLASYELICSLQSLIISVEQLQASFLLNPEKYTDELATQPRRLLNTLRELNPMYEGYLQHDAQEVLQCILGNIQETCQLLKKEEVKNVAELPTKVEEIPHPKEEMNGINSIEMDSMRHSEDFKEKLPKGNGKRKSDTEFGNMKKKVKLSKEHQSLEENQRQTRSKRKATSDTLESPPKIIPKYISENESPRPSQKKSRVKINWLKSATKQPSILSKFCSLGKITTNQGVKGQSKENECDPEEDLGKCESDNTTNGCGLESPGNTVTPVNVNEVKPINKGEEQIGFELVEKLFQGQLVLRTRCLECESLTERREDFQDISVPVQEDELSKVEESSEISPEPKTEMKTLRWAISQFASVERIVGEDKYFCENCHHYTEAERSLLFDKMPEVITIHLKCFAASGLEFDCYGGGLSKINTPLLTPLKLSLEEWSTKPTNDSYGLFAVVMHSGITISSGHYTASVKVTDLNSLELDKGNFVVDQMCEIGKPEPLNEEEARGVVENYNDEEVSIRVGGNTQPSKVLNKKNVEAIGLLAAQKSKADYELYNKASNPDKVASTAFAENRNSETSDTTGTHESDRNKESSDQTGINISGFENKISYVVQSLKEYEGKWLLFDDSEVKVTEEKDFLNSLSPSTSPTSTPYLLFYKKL
Chain of USP1 (construct USP1 (I-785, GG670, 671AA)/UAF1 (I-677)-Flag) (Q8TAF3 whole entry partner): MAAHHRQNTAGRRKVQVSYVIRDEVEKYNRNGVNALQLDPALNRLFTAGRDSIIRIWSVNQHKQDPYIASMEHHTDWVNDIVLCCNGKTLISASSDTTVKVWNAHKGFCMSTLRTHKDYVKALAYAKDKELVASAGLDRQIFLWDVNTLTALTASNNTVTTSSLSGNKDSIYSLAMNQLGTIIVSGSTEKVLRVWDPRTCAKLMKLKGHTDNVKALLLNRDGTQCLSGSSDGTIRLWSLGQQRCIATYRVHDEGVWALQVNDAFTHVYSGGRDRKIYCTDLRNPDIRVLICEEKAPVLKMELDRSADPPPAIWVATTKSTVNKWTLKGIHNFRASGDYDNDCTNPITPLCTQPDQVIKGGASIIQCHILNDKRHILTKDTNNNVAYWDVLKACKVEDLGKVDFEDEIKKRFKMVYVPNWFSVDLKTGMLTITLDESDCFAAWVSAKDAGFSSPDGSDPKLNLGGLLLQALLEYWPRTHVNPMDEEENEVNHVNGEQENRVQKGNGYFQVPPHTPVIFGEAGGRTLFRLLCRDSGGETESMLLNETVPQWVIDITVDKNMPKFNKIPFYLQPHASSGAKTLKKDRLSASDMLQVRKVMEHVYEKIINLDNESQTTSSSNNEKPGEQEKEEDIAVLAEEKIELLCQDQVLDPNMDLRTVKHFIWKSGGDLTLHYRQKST
On to `CC(O)c1ccccc1-c1ncc2[nH]c(=O)n(Cc3ccc(-c4nc(C(F)(F)F)cn4C)cc3)c2n1` (centres unmarked) [Compound I-544, 2-(2-(1-Hydroxyethyl)phenyl)-9-(4-(1-methyl-4-(trifluoromethyl)-1H-imidazol-2-yl)benzyl)-7,9-dihydro-8H-purin-8-one], for which the 50% inhibitory concentration (IC50) lay within 50 to 200 nM.
In the case of `COCC1CCCCN1C(=O)c1ccc(Cn2c(=O)[nH]c3cnc(-c4ccccc4C(C)C)nc32)cc1` (centres unmarked) [Compound I-400, 2-(2-isopropylphenyl)-9-(4-(2-(methoxymethyl)piperidine-1-carbonyl)benzyl)-7,9-dihydro-8H-purin-8-one] it was 50 to 200 nM; in that of `CC(C)c1ccccc1-c1ncc2[nH]c(=O)n(Cc3ccc(-c4cn(CCN(C)C)nn4)cc3)c2n1` [Compound I-521, 9-(4-(1-(2-(Dimethylamino)ethyl)-1H-1,2,3-triazol-4-yl)benzyl)-2-(2-isopropylphenyl)-7,9-dihydro-8H-purin-8-one], 200 to 2000 nM; in that of `CCN(CC)Cc1cn(-c2ccc(Cn3c(=O)[nH]c4cnc(-c5ccccc5C(C)C)nc43)cc2)nn1` [Compound I-346, 9-(4-(4-((diethylamino)methyl)-1H-1,2,3-triazol-1-yl)benzyl)-2-(2-isopropylphenyl)-7,9-dihydro-8H-purin-8-one], more than 2000 nM.
With `CC(C)c1ccccc1-c1ncc2[nH]c(=O)n(Cc3ccc(C(=O)NCc4ccc(F)cc4)cc3)c2n1` [Compound I-354, N-(4-fluorobenzyl)-4-((2-(2-isopropylphenyl)-8-oxo-7,8-dihydro-9H-purin-9-yl)methyl)benzamide] the figure was 50 to 200 nM; with `COCCNC(=O)c1ccc(Cn2c(=O)[nH]c3cnc(-c4ccccc4C(C)C)nc32)cc1` [Compound I-352, 4-((2-(2-isopropylphenyl)-8-oxo-7,8-dihydro-9H-purin-9-yl)methyl)-N-(2-methoxyethyl)benzamide], 200 to 2000 nM; with `CC(C)c1ccccc1-c1ncc2[nH]c(=O)n(Cc3ccc(C(=O)N[C@@H]4CCC[C@@H]4O)cc3)c2n1` [Compound I-387, N-((1R,2S)-2-hydroxycyclopentyl)-4-((2-(2-isopropylphenyl)-8-oxo-7,8-dihydro-9H-purin-9-yl)methyl)benzamide], 50 to 200 nM.
In the case of `CC(C)c1ccccc1-c1ncc2[nH]c(=O)n([C@@H](C)c3ccc(-n4cccn4)cc3)c2n1` [Compound I-157, (S)-9-(1-(4-(1H-pyrazol-1-yl)phenyl)ethyl)-2-(2-isopropylphenyl)-7,9-dihydro-8H-purin-8-one] it was 50 to 200 nM; in that of `CC(C)c1ncccc1-c1ncc2[nH]c(=O)n(Cc3ccc(-n4ccc(C5CCNCC5)n4)cc3)c2n1` [Compound I-435, 2-(2-isopropylpyridin-3-yl)-9-(4-(3-(piperidin-4-yl)-1H-pyrazol-1-yl)benzyl)-7,9-dihydro-8H-purin-8-one], more than 2000 nM; in that of `CC(C)c1ccccc1-c1ncc2[nH]c(=O)n([C@@H](C)c3ccccc3)c2n1` [Compound I-156, (S)-2-(2-isopropylphenyl)-9-(1-phenylethyl)-7,9-dihydro-8H-purin-8-one], more than 2000 nM.
With `CC(C)c1ccccc1-c1ncc2c(n1)n(Cc1ccc(N(C)CC3CC3)cc1)c(=O)n2C` [Compound I-490, 9-(4-((cyclopropylmethyl)(methyl)amino)benzyl)-2-(2-isopropylphenyl)-7-methyl-7,9-dihydro-8H-purin-8-one], the IC50 fell in the range of 200 to 2000 nM.
With `Cn1cc(C(F)(F)F)nc1-c1ccc(Cn2c(=O)[nH]c3cnc(-c4cccnc4NC4CCC4)nc32)cc1` [Compound I-316, 2-(2-(cyclobutylamino)pyridin-3-yl)-9-(4-(1-methyl-4-(trifluoromethyl)-1H-imidazol-2-yl)benzyl)-7,9-dihydro-8H-purin-8-one] the figure was 50 to 200 nM; with `CC(C)c1ccccc1-c1ncc2[nH]c(=O)n(Cc3ccccc3)c2n1` [Compound I-171, 9-benzyl-2-(2-isopropylphenyl)-7,9-dihydro-8H-purin-8-one], 50 to 200 nM; with `Cc1nc(-c2ccc(Cn3c(=O)[nH]c4cnc(-c5ccccc5C(C)C)nc43)cc2)no1` [Compound I-152, 2-(2-isopropylphenyl)-9-(4-(5-methyl-1,2,4-oxadiazol-3-yl)benzyl)-7,9-dihydro-8H-purin-8-one], less than 50 nM.
`COCCn1ccnc1-c1ccc(Cn2c(=O)n(C)c3cnc(-c4ccccc4C(C)C)nc32)cc1` [Compound I-498, 2-(2-isopropylphenyl)-9-(4-(1-(2-methoxyethyl)-1H-imidazol-2-yl)benzyl)-7-methyl-7,9-dihydro-8H-purin-8-one] displayed an IC50 of less than 50 nM.
In turn, `CC(C)c1ccccc1-c1ncc2c(n1)n(Cc1ccc(OC3CCC3)cc1)c(=O)n2C` [Compound I-237, 9-(4-cyclobutoxybenzyl)-2-(2-isopropylphenyl)-7-methyl-7,9-dihydro-8H-purin-8-one] came in with a concentration for half-maximal inhibition (IC50) of 50 to 200 nM.
`Cn1cc(C(F)(F)F)nc1-c1ccc(Cn2c(=O)[nH]c3cnc(-c4cccnc4OCC(F)(F)F)nc32)cc1` [Compound I-26, 9-(4-(1-methyl-4-(trifluoromethyl)-1H-imidazol-2-yl)benzyl)-2-(2-(2,2,2-trifluoroethoxy)pyridin-3-yl)-7,9-dihydro-8H-purin-8-one] showed a concentration for half-maximal inhibition (IC50) of less than 50 nM.
Consider `CC(=O)N1CCC(c2cn(C)c(-c3ccc(Cn4c(=O)[nH]c5cnc(-c6ccccc6C(C)C)nc54)cc3)n2)CC1` [Compound I-472, 9-(4-(4-(1-acetylpiperidin-4-yl)-1-methyl-1H-imidazol-2-yl)benzyl)-2-(2-isopropylphenyl)-7,9-dihydro-8H-purin-8-one], for which the concentration for half-maximal inhibition (IC50) is less than 50 nM.
Turning to `CC(C)c1ccccc1-c1ncc2[nH]c(=O)n([C@H](C)c3ccc(-c4nccn4C)cc3)c2n1` [Compound I-309, (R)-2-(2-isopropylphenyl)-9-(1-(4-(1-methyl-1H-imidazol-2-yl)phenyl)ethyl)-7,9-dihydro-8H-purin-8-one], the half-inhibitory concentration (IC50) was less than 50 nM.
Consider `CC(C)c1ccccc1-c1ncc2[nH]c(=O)n(Cc3ccc(C4OCC4(C)C)cc3)c2n1` (centres unmarked) [Compound I-216, 9-(4-(3,3-dimethyloxetan-2-yl)benzyl)-2-(2-isopropylphenyl)-7,9-dihydro-8H-purin-8-one], for which the IC50 lay within 50 to 200 nM.
With `CC(C)c1ncc(F)cc1-c1ncc2[nH]c(=O)n(Cc3ccc(-c4nc(C(F)(F)F)cn4C)cc3)c2n1` [Compound I-67, 2-(5-fluoro-2-isopropylpyridin-3-yl)-9-(4-(1-methyl-4-(trifluoromethyl)-1H-imidazol-2-yl)benzyl)-7,9-dihydro-8H-purin-8-one], the IC50 is less than 50 nM.
The compound `CC(C)c1ccccc1-c1ncc2[nH]c(=O)n(Cc3ccc(-c4ncsc4CO)cc3)c2n1` [Compound I-302, 9-(4-(5-(hydroxymethyl)thiazol-4-yl)benzyl)-2-(2-isopropylphenyl)-7,9-dihydro-8H-purin-8-one] yielded an IC50 of less than 50 nM.
In the case of `CC(C)c1ccccc1-c1ncc2c(n1)n(Cc1ccc(-c3cn(C)cn3)cc1)c(=O)n2C` [Compound I-271, 2-(2-isopropylphenyl)-7-methyl-9-(4-(1-methyl-1H-imidazol-4-yl)benzyl)-7,9-dihydro-8H-purin-8-one] it was less than 50 nM; in that of `CC(C)c1ccccc1-c1ncc2c(n1)n(Cc1ccc(NCC3CC3)cc1)c(=O)n2C` [Compound I-488, 9-(4-((cyclopropylmethyl)amino)benzyl)-2-(2-isopropylphenyl)-7-methyl-7,9-dihydro-8H-purin-8-one], 50 to 200 nM; in that of `Cn1cc(C(F)(F)F)nc1-c1ccc(Cn2c(=O)n(C)c3cnc(-c4ccccc4C(C)(C)O)nc32)cc1` [Compound I-132, 2-(2-(2-hydroxypropan-2-yl)phenyl)-7-methyl-9-(4-(1-methyl-4-(trifluoromethyl)-1H-imidazol-2-yl)benzyl)-7,9-dihydro-8H-purin-8-one], less than 50 nM.
Turning to `CC(C)c1ccccc1-c1ncc2[nH]c(=O)n(Cc3ccc(-n4ccc([C@H]5CCCNC5)n4)cc3)c2n1` (single isomer, unassigned) [Compound I-225], the IC50 was 50 to 200 nM.
In turn, `CC(C)c1ccccc1-c1ncc2[nH]c(=O)n(Cc3ccc(-n4ccc(N5CCN(C)CC5)n4)cc3)c2n1` [Compound I-173, 2-(2-isopropylphenyl)-9-(4-(3-(4-methylpiperazin-1-yl)-1H-pyrazol-1-yl)benzyl)-7,9-dihydro-8H-purin-8-one] yielded an IC50 of less than 50 nM.
Compound `CC(C)c1ccccc1-c1ncc2c(n1)n(Cc1ccc(-c3cnn4c3COCC4)cc1)c(=O)n2C` [Compound I-265, 9-(4-(6,7-dihydro-4H-pyrazolo[5,1-c][1,4]oxazin-3-yl)benzyl)-2-(2-isopropylphenyl)-7-methyl-7,9-dihydro-8H-purin-8-one] gave an IC50 of 200 to 2000 nM.
The compound `CC(C)c1ccccc1-c1ncc2[nH]c(=O)n(Cc3ccc(C(=O)N4CC(F)C4)cc3)c2n1` [Compound I-386, 9-(4-(3-fluoroazetidine-1-carbonyl)benzyl)-2-(2-isopropylphenyl)-7,9-dihydro-8H-purin-8-one] yielded a 50% inhibitory concentration (IC50) of 50 to 200 nM.
With `Cc1ccnn1-c1ccc(Cn2c(=O)[nH]c3cnc(-c4ccccc4C(C)C)nc32)cc1` [Compound I-184, 2-(2-isopropylphenyl)-9-(4-(5-methyl-1H-pyrazol-1-yl)benzyl)-7,9-dihydro-8H-purin-8-one] the figure was less than 50 nM; with `Cc1coc(-c2ccc(Cn3c(=O)n(C)c4cnc(-c5ccccc5C(C)C)nc43)cc2)n1` [Compound I-290, 2-(2-isopropylphenyl)-7-methyl-9-(4-(4-methyloxazol-2-yl)benzyl)-7,9-dihydro-8H-purin-8-one], less than 50 nM.
In the case of `CC(C)c1ncccc1-c1ncc2c(n1)n([C@H](C)c1ccc(-c3nc(C(F)(F)F)cn3C)cc1)c(=O)n2C` [Compound I-115, (R)-2-(2-isopropylpyridin-3-yl)-7-methyl-9-(1-(4-(1-methyl-4-(trifluoromethyl)-1H-imidazol-2-yl)phenyl)ethyl)-7,9-dihydro-8H-purin-8-one] it was less than 50 nM.
